ChEMBL document CHEMBL6134839, “Novel 15-lipoxygenase-1 inhibitor protects cells from RSL3-induced cell death” (Eur J Med Chem, 2025)

Columns and labels:
[1] = target: T1, Polyunsaturated fatty acid lipoxygenase ALOX15 (Homo sapiens, UniProt P16050); experiment: Inhibition of human 15-LOX-1 using linoleic acid as substrate preincubated for 10 mins followed by substrate addition
T1 sequence (P16050 whole entry): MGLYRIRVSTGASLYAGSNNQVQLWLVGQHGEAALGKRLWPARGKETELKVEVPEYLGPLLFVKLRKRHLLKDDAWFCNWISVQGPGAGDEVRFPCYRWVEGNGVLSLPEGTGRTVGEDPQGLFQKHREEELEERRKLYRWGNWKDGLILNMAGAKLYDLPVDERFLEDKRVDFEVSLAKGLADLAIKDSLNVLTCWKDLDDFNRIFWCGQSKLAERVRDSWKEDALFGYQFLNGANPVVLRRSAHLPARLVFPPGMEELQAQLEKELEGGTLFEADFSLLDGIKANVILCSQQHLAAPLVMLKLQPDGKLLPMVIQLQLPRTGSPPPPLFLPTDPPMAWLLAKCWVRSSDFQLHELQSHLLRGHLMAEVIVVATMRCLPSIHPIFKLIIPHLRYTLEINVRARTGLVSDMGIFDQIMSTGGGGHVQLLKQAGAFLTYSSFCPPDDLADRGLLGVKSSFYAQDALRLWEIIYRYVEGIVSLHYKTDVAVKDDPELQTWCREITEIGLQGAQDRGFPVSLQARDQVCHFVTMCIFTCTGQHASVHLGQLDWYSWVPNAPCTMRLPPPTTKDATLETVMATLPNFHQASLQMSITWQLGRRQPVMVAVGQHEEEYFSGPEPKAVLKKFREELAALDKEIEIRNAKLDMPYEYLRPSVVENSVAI

[2] = Inhibition of RSL3-induced lipid peroxidation in human HEK293 cells incubated for 3 hrs by C11-BODIPY581/591 probe based flow cytometry analysis; type: functional, cell-based

## c1ccc2c(c1)SCc1c-2[nH]c2ccccc12
[1]
  IC50: 10 µM
[2]
  EC50: 1200 nM
